The assay relates to Clytia hemisphaerica planula larvae. The assay is described as follows: Metamorphosis (settlement) induction of planula larvae by synthetic GLW-amide neuropeptides. To be noted: for Metamorphosis efficiency, Average: peptide concentration not given. The class given is in vivo. The procedure: (1) Culture planula larvae in MFSW containing penicillin and streptomycin. (2) Wash the surface of large glass slides (75 mm×50 mm) with warm tap water (40–50°C) and dry. Place them in 100 mm diameter petri dishes. (3) Dilute GLW-amide peptide stock solution (1–5 mM in distilled water, stored at −20°C) just prior to use in MFSW (4 ml/large slide). Recommended final concentration for GLW-amide-6 is 0.5 µM. (4) Using a plastic transfer pipette, carefully pour 0.1 ml/cm^2 or more peptide-containing sea water over the glass slide (4 ml for large glass slides, Fig. S1F). (5) Transfer 2.5–3-day-old planulae using a glass pipette. Disperse them as the settlement starts quickly. (6) Cover the dish with a lid to minimize the water evaporation and keep the dish undisturbed. (7) Planula will be firmly settled in several hours after peptide treatment. Transfer slides to polyp tanks, not later than 16 h after induction. (8) Start to feed smashed Artemia once the primary polyps have extended tentacles and open mouths. (9) Once the colony contains multiple gastrozooids, it can be fed normally with live Artemia nauplii.
Metamorphosis of planula larvae was induced by transferring them onto glass slides covered with at least 0.1 ml/cm^2 of sea water containing synthetic neuropeptides (Fig. 2E). A selection of synthetic amidated peptides derived from the neuropeptide precursors Che-PP2 and Che-PP11 ([Takeda et al., 2018]) were tested as metamorphosis inducers (Table 2) on 3-day-old planula larvae obtained by crossing Z13 (male) and Z11 (female) strains. Planula attach firmly onto the slide within a few hours (Fig. 1C, left). Metamorphosis efficiency was measured by successful settlement on the slide at 12 h, as the timing of stalk extension is variable, from several hours to days.

Square brackets hold non-standard residues; d marks the D form. Ends that are not written are not given here. pGlu = O=C1CC[C@@H](C(=O)O)N1

“GNPPGLW-NH2 [GLW-amide-2, synthetic GLW-amide neuropeptide from Clytia transcriptome (precursor PP11), previously used to trigger metamorphosis]” yielded a Planula settlement efficiency (previous conditions, 1 µM peptide, variable (Fig. 7)) of at least 40%.

As to “[pGlu]QQAPKGLW-NH2 [GLW-amide-6, synthetic GLW-amide neuropeptide derived from precursor Che-PP11]”, for the setting “0.3 µM peptide, settlement scored at 12 h, 5 repeats of 20 planulae (Fig. 7)”, the “Planula settlement on the glass slide” value is reported as “virtually all”. The “Lowest concentration active in inducing metamorphosis” value (3-day-old planulae (Z13 x Z11) on glass slide in sea water containing peptide, settlement scored at 12 h, 5 repeats of 20 planulae (Fig. 7)) worked out at 0.3 µM. This substance also gave a Planula settlement efficiency (newly designed peptide, concentration not printed at this place (Fig. 7)) of around 100%. In addition, the “Metamorphosis efficiency, Average” value is 96.5% (substrate agarose (2%), sample size 96–98, 4 repeats); 98.6% (substrate glass, sample size 90–99, 5 repeats); 99.9% (substrate plastic (polypropyrene), sample size 90–100, 5 repeats).
